{"source": "paper PMC6934184", "about": "“Selective DNA-PKcs inhibition extends the therapeutic index of localized radiotherapy and chemotherapy” (The Journal of Clinical Investigation, 2019)", "target": "T1, MAP2K6 (MKK6) S207E T211E (Homo sapiens, UniProt P52564, S207E/T211E)", "T1 construct": "purchased Thermo Fisher Scientific (Life Technologies) SelectScreen", "T1 sequence (P52564 whole entry S207E/T211E)": "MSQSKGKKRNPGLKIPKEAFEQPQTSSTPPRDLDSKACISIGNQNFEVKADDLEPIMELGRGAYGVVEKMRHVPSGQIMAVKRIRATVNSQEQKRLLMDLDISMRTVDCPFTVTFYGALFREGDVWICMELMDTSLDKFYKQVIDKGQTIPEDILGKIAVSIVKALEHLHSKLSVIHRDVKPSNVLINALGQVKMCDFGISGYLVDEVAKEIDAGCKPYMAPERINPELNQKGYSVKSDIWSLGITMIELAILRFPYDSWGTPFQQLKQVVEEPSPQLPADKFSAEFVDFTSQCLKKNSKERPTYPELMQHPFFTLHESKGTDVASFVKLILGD", "assay": "SelectScreen LanthaScreen", "format": "binding", "conditions": "read-out: % displacement", "method_in_brief": "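Percent values come from Thermo SelectScreen profiling of NU5455, combining activity and binding assays. CSF1R was run in Z'LYTE format at Km app ATP, and CAMK1 in Adapta format with ATP listed at 10.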"}
{"smiles": "CN(C(=O)CN1CCOCC1)c1ccc2sc3c(-c4cccc5c(=O)cc(N6CC7CCC(C6)O7)oc45)cccc3c2c1", "note": "[NU5455]", "values": [{"measurement": "inhibition at 1 µM", "result": -4.9, "unit": "%"}]}
